In patent US20220386606A1, “SPECIFICALLY SUBSTITUTED 3-PHENYL-5-SPIROCYCLOPENTYL-3-PYRROLIN-2-ONES AND THEIR USE AS HERBICIDES” (Bayer Aktiengesellschaft, priority 2019, published 2022):

Tests used:
ALOMY [1] = test: Post-emergence herbicidal action against ALOMY; format: in vivo, Alopecurus myosuroides; conditions: 80 g/ha, visual assessment after about 3 weeks
Procedure, shortened: (§1)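 Sow in sandy loam and grow in the greenhouse for 2 to 3 weeks to the one-leaf stage. Spray the compound as an aqueous suspension or emulsion with 0.2% wetting agent, 600 to 800 l/ha water rate. Hold about 3 weeks, then score damage visually versus controls.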

DIGSA [2] = test: Post-emergence herbicidal action against DIGSA; format: in vivo, Digitaria sanguinalis; conditions: 80 g/ha, visual assessment about 3 weeks after treatment vs untreated controls
Procedure, shortened: as §1

VERPE = test: Pre-emergence herbicidal action against VERPE; format: in vivo, Veronica persica; conditions: 320 g/ha
Procedure, shortened: (§2)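 Herbicidal activity is expressed as percent visual damage compared with untreated controls, where 100% means dead plants, assessed 3 weeks after pre-emergence treatment of sown, soil-covered seeds in sandy loam under greenhouse conditions.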

LOLRI [3] = test: Pre-emergence herbicidal action against LOLRI (Table 8, titled post-emergence at 320 g/ha); format: in vivo, Lolium rigidum; conditions: table stands in the pre-emergence section
Procedure, shortened: as §2

POLCO = test: Pre-emergence herbicidal action against POLCO; format: in vivo, Polygonum convolvulus; conditions: 320 g/ha
Excerpt: (§3) Seeds of monocotyledonous and dicotyledonous weed plants and crop plants are laid out in sandy loam soil in wood-fiber pots and covered with soil. The compounds of the invention, formulated in the form of wettable powders (WP) or as emulsion concentrates (EC), are then applied to the surface of the covering soil as aqueous suspension or emulsion at a water application rate equating to 600 to 800 L/ha with addition of 0.2% wetting agent.
(§4) After the treatment, the pots are placed in a greenhouse and kept under good growth conditions for the trial plants. The damage to the test plants is scored visually after a test period of 3 weeks by comparison with untreated controls (herbicidal activity in percent (%): 100% activity=the plants have died, 0% activity=like control plants).

AVEFA [4] = test: Pre-emergence herbicidal action against AVEFA; format: in vivo, Avena fatua; conditions: 320 g/ha, scored visually after 3 weeks vs untreated controls
Procedure, shortened: as §2

DIGSA [5] = test: Pre-emergence herbicidal action against DIGSA; format: in vivo, Digitaria sanguinalis; conditions: 320 g/ha, scored visually after 3 weeks vs untreated controls
Procedure, shortened: as §2

ECHCG [6] = test: Pre-emergence herbicidal action against ECHCG; format: in vivo, Echinochloa crus-galli; conditions: 320 g/ha, scored visually after 3 weeks vs untreated controls
Procedure, shortened: as §2

ECHCG [7] = test: Post-emergence herbicidal action against ECHCG; format: in vivo, Echinochloa crus-galli; conditions: 80 g/ha, visual assessment about 3 weeks after treatment vs untreated controls
Procedure, shortened: as §1

ALOMY [8] = test: Pre-emergence herbicidal action against ALOMY; format: in vivo, Alopecurus myosuroides; conditions: 320 g/ha, scored visually after 3 weeks vs untreated controls
Procedure, shortened: as §2

LOLRI [9] = test: Post-emergence herbicidal action against LOLRI; format: in vivo, Lolium rigidum; conditions: 80 g/ha, visual assessment about 3 weeks after treatment vs untreated controls
Procedure, shortened: as §1

VIOTR = test: Pre-emergence herbicidal action against VIOTR; format: in vivo, Viola tricolor; conditions: 320 g/ha
Procedure, shortened: as §2

SETVI [10] = test: Pre-emergence herbicidal action against SETVI; format: in vivo, Setaria viridis; conditions: 320 g/ha, scored visually after 3 weeks vs untreated controls
Procedure, shortened: as §2

AVEFA [11] = test: Post-emergence herbicidal action against AVEFA; format: in vivo, Avena fatua; conditions: 80 g/ha, visual assessment after about 3 weeks
Procedure, shortened: as §1

MATIN = test: Pre-emergence herbicidal action against MATIN; format: in vivo; conditions: 320 g/ha
Excerpt: as §3, §4

ABUTH = test: Post-emergence herbicidal action against ABUTH; format: in vivo, Abutylon threophrasti; conditions: 80 g/ha, visual assessment about 3 weeks after treatment vs untreated controls
Protocol: Seeds of monocotyledonous and dicotyledonous weed and crop plants are laid out in sandy loam soil in wood-fiber pots, covered with soil and cultivated in a greenhouse under good growth conditions. 2 to 3 weeks after sowing, the test plants are treated at the one-leaf stage. The compounds of the invention, formulated in the form of wettable powders (WP) or as emulsion concentrates (EC), are then sprayed onto the green parts of the plants as aqueous suspension or emulsion at a water application rate equating to 600 to 800 l/ha with addition of 0.2% wetting agent. After the test plants have been left to stand in the greenhouse under optimal growth conditions for about 3 weeks, the action of the preparations is assessed visually in comparison to untreated controls (herbicidal action in percent (%): 100% activity=the plants have died, 0% activity=like control plants).

AMARE = test: Pre-emergence herbicidal action against AMARE; format: in vivo, Amaranthus retroflexus; conditions: 320 g/ha
Procedure, shortened: as §2

SETVI [12] = test: Post-emergence herbicidal action against SETVI; format: in vivo, Setaria viridis; conditions: 80 g/ha, visual assessment about 3 weeks after treatment vs untreated controls
Procedure, shortened: as §1

| SMILES | Post-emergence action against ALOMY in % (ALOMY [1]) [%] | Post-emergence action against DIGSA in % (DIGSA [2]) [%] | Pre-emergence action against VERPE in % (VERPE) [%] | Pre-emergence herbicidal action against LOLRI in % (LOLRI [3]) [%] | Pre-emergence action against POLCO in % (POLCO) [%] | Pre-emergence action against AVEFA in % (AVEFA [4]) [%] | Pre-emergence action against DIGSA in % (DIGSA [5]) [%] | Pre-emergence action against ECHCG in % (ECHCG [6]) [%] | Post-emergence action against ECHCG in % (ECHCG [7]) [%] | Pre-emergence action against ALOMY in % (ALOMY [8]) [%] | Post-emergence action against LOLRI in % (LOLRI [9]) [%] | Pre-emergence action against VIOTR in % (VIOTR) [%] | Pre-emergence action against SETVI in % (SETVI [10]) [%] | Post-emergence action against AVEFA in % (AVEFA [11]) [%] | Pre-emergence action against MATIN in % (MATIN) [%] | Post-emergence action against ABUTH in % (ABUTH) [%] | Pre-emergence action against AMARE in % (AMARE) [%] | Post-emergence action against SETVI in % (SETVI [12]) [%] |
| --- | --- | --- | --- | --- | --- | --- | --- | --- | --- | --- | --- | --- | --- | --- | --- | --- | --- | --- |
| CC#Cc1cc(Br)c(C2=C(O)C3(CCC(COC)C3)NC2=O)c(OCC)c1 (centres unmarked) [Example I-69] | 100 | 90 | 80 | 100 | 100 | 90 | 100 | 100 | 100 | 100 | 100 | 90 | 100 |  |  |  |  |  |
| CC#Cc1cc(C)c(C2=C(OC(=O)OCC)C3(CCC(COCC)C3)NC2=O)c(F)c1 (centres unmarked) [Example P-53] | 100 | 100 |  | 100 |  | 90 | 100 | 100 | 100 | 100 | 100 | 80 | 100 | 90 | 90 | 80 |  |  |
| CC#Cc1cc(C)c(C2=C(OC(=O)OCC)C3(CCC(COCCOC)C3)NC2=O)c(OC)c1 (centres unmarked) [Example P-80] | 100 | 90 | 100 | 100 | 90 | 100 | 100 | 100 | 100 | 100 | 90 | 100 | 100 | 90 | 90 |  | 90 | 100 |
| CC#Cc1cc(F)c(C2=C(O)C3(CCC(COCC)C3)NC2=O)c(OC)c1 (centres unmarked) [Example I-42] | 90 | 100 |  | 100 |  | 90 | 100 | 80 | 100 |  | 90 | 80 | 100 | 90 | 80 | 80 |  | 100 |
| CC#Cc1cc(C)c(C2=C(OC(=O)OCC)C3(CCC(COCCC)C3)NC2=O)c(Cl)c1 (centres unmarked) [Example P-86] | 90 | 90 | 100 | 100 | 90 | 80 | 100 | 100 | 100 | 100 | 100 | 100 | 100 |  | 80 |  | 100 | 100 |
| CC#Cc1cc(Br)c(C2=C(OC(=O)C(C)C)C3(CCC(COC)C3)NC2=O)c(OC)c1 (centres unmarked) [Example P-04] | 100 | 100 | 90 | 100 |  | 100 | 100 |  | 100 | 100 | 100 | 100 | 100 |  | 90 | 80 | 80 | 100 |
| CC#Cc1cc(Br)c(C2=C(OC(=O)OCC)C3(CCC(COCC)C3)NC2=O)c(OCC)c1 (centres unmarked) [Example P-89] | 100 | 90 |  | 100 | 100 | 100 | 100 | 100 | 100 | 100 | 90 | 80 | 100 |  |  |  |  | 100 |
| C=CCOCC1CCC2(C1)NC(=O)C(c1c(C)cc(C#CC)cc1Cl)=C2O (centres unmarked) [Example I-46] |  | 90 |  | 100 | 90 | 90 | 100 | 100 | 100 | 100 | 90 | 100 | 100 |  | 90 |  | 100 | 100 |
| C=CCOCC1CCC2(C1)NC(=O)C(c1c(C)cc(C#CC)cc1Br)=C2O (centres unmarked) [Example I-70] | 90 | 90 |  | 100 | 80 | 100 | 100 | 100 | 100 | 100 | 90 | 100 | 100 |  | 80 |  |  | 100 |
| CC#Cc1cc(C)c(C2=C(OC(=O)OCC)C3(CCC(COCCOC)C3)NC2=O)c(Cl)c1 (centres unmarked) [Example P-76] | 100 | 90 | 100 | 100 | 100 | 100 | 100 | 100 | 100 | 100 | 100 | 100 | 100 | 90 |  |  | 100 | 100 |
